# Measured values published in the supplement of paper PMC10307832.
# Tests used:
# Assay in all cases: relative viability (nuclei count vs DMSO), 5 days (fraction); higher = more cells survive
# QS11 = compound: C1CC2=C(C1)C=C(C=C2)OC3=NC(=C4C(=N3)N(C=N4)CC5=CC=C(C=C5)C6=CC=CC=C6)N[C@@H](CC7=CC=CC=C7)CO [QS11]
# Procedure, shortened: (§1)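 Viability was read as treated-well nuclei divided by vehicle-well nuclei, using the median across plates. Lung cancer cell lines in 1536-well plates were kept overnight at 37 °C, pinned with five √10-spaced library-drug doses, and after 5 days were Hoechst-stained, imaged at 4× and counted in MetaXpress. Plates passed only with control CV below 25% and at least one doubling.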
# AZ628 = compound: CC1=C(C=C(C=C1)NC(=O)C2=CC(=CC=C2)C(C)(C)C#N)NC3=CC4=C(C=C3)N=CN(C4=O)C [AZ628]
# Procedure, shortened: as §1
# Darinaparsin = compound: C[As](C)SC[C@H](NC(=O)CC[C@H](N)C(=O)O)C(=O)NCC(=O)O [Darinaparsin]
# Procedure, shortened: as §1
cell line,measurement,setting,value
LCLC-97TM1,relative viability,QS11; 0.253 µM,1.15
same,relative viability,QS11; 2.53 µM,0.998
same,relative viability,QS11; 8 µM,0.84
same,relative viability,AZ628; 0.08 µM,1.17
same,relative viability,AZ628; 0.253 µM,0.849
same,relative viability,AZ628; 0.8 µM,0.765
same,relative viability,AZ628; 2.53 µM,0.761
same,relative viability,AZ628; 8 µM,0.199
same,relative viability,Darinaparsin; 0.08 µM,1.13
same,relative viability,Darinaparsin; 0.8 µM,0.834
same,relative viability,Darinaparsin; 2.53 µM,1
same,relative viability,Darinaparsin; 8 µM,1.02
